Article PMC6406907, “A H2AX–CARP-1 Interaction Regulates Apoptosis Signaling Following DNA Damage” (Cancers, 2019)
No end group written: not given here. HA = not defined here

Columns and labels:
MDA-MB-468 cells = test: MTT cell viability/growth inhibition, MDA-MB-468; type: cell-based, human; conditions: for cell viability: 10 μM, MDA-MB-468, MTT, mean of three independent experiments; for growth inhibition of EGFP-CARP-1 / EGFP-H2AX (1–35)-expressing cells: MDA-MB-468 sublines vs EGFP-expressing counterparts
Experimental: Routine maintenance and culture of MDA-MB-468 (lacking estrogen receptor; ER and having mutant p53) human triple-negative breast cancer (TNBC) cells, human cervical cancer HeLa, human kidney cancer UOK 262, non-small-cell lung cancer H1975, and HCC827 cells was carried out essentially as described previously. Generation and characterization of MDA-MB-468 cells expressing reduced CARP-1 was described previously. The stable sublines were generated by transfecting the MDA-MB-468 and Hela cells with the pcDNA3 vector, pcDNA3-CARP-1 wild-type (WT)-myc-His clone 6.1.2, pcDNA3-CARP-1(Δ600–650)-myc-His, pcDNA3-EGFP, pcDNA3-EGFP-H2AX (1–35), or pcDNA3-EGFP-CARP-1 (636–650) plasmids, followed by selection in the presence of 800 μg/mL neomycin using described methods. The cell lysates from wild-type, untransfected cells, neomycin-resistant pools, or individual sublines were then subjected to MTT-based viability, confocal, immunoprecipitation (IP), and Western blot (WB) analyses as below.
The cell growth inhibition was assessed using an MTT assay following the established protocols described by us previously.
Here, we utilized human TNBC MDA-MB-468 and human cervical cancer HeLa cells to conduct an MTT-based dose-response analysis using Adriamycin and CFM compounds. […] Since Adriamycin, CFM-4, and CFM-4.16 have molecular masses of 543.3, 404.9, and 440.3, respectively, we chose to use an equimolar dose of each compound in the MTT assays. […] Prior reports established that phosphorylation of H2AX at serine 139 (γ-H2AX) is involved in DNA damage repair and apoptotic signaling by ATM/ATR and JNKs, respectively. Next, the MDA-MB-468, HeLa, and the kidney cancer UOK 262 cells were treated with a 10 μM dose of the CFM-4.16 or Adriamycin for various time periods. The cell lysates from the control, untreated, and treated cells were analyzed by WB for expression of CARP-1, phospho-JNK1/2, phospho-H2AX, and poly ADP ribose polymerase (PARP) proteins. […] The H2AX activation is also indicative of DNA damage and involves pro-apoptotic JNKs. Our data in Figure 1C and Figure S1B,C (Supplementary Materials) also show activation of JNKs; however, a robust JNK activation is co-incident with H2AX phosphorylation following treatments with Adriamycin or CFM-4.16.
Figure 7 Disruption of H2AX interaction with CARP-1 results in enhanced viabilities of CFM-4-, CFM-4.16-, or Adriamycin-treated cells in part due to reduced apoptosis. (A,C,D) Indicated MDA-MB-468 cell lines were treated with DMSO (Control), or with the noted dose and time of Adriamycin, CFM-4, or CFM-4.16 compounds. Determination of viable/live cells was carried out by MTT assay as described in Section 2. (B,E,F) Cell lysates derived from vehicle DMSO (Control), or CFM-4-, CFM-4.16-, or Adriamycin-treated cells were added to the wells that had immobilized fluorogenic substrates of noted caspases. The fluorescence released from the activated caspase-dependent cleavage of respective substrate was detected by a plate reader at the excitation and emission wavelengths of 380 nm and 460 nm, respectively, as detailed in Section 2. The columns in bar charts in panels A, C, D and B, […] represent means of three and two independent experiments, respectively; bars, SE. For panels C and D, * p < 0.05, **p < 0.01 and *** p ≤ 0.001 relative to the respective EGFP vector subline. For panels E and F, *** p ≤ 0.05 relative to the respective EGFP vector subline.
Figure 8 Ectopic expression of TAT-CARP-1 (636–650) peptide results in enhanced viabilities of Adriamycin-treated cells. MDA-MB-468 (A) or HeLa (B) cells were pre-incubated with 300 μg/mL indicated peptides for 72 h, followed by treatments with the noted dose and time of Adriamycin. Determination of viable/live cells was carried out using an MTT assay as described in Section 2. […]

[1] = system: caspases-3, -8, -9, and -2; test: Caspase activity, ApoAlert Caspase profiling plate, MDA-MB-468 sublines; type: cell-based, human; conditions: for caspase-3 activation in EGFP-peptide-expressing cells: MDA-MB-468 sublines vs EGFP vector subline, Figure 7E,F
Text: Our next objective was to analyze the biological significance of the CARP-1–H2AX interaction in cells. For this purpose, we utilized MDA-MB-468 and HeLa cell lines that stably express myc-His-tagged wild-type CARP-1 or CARP-1 (Δ600–650)-myc-His proteins as detailed in Figure S4 (Supplementary Materials). These sublines were then either untreated (Control, DMSO), or treated with Adriamycin or CFM-4 compound. […] Next, we measured activation of caspases as an apoptosis readout in cells expressing myc-His-tagged wild-type CARP-1 or CARP-1 (Δ600–650) proteins that were either untreated or treated with Adriamycin or CFM compounds as detailed in Section 2. We utilized a lower, 4–5 μM dose of Adriamycin or CFM compounds because a 10 μM Adriamycin dose caused interference in signal output/readout in this particular assay, likely due to background fluorescence that is emitted by higher dose of Adriamycin. Although Adriamycin has a maximum excitation and emission wavelength of 470 and 560 nm, respectively, we found significant fluorescence emission in cells treated with 10 μM Adriamycin at a 380-nm excitation wavelength. Moreover, since caspase activation precedes apoptotic cell death, we utilized a lower dose of Adriamycin to permit a robust measurement of optimal caspase activation in cells undergoing moderate apoptosis with lower/minimal interference by Adriamycin-induced fluorescence signals. […] MDA-MB-468 or HeLa cells that express EGFP or EGFP-H2AX (1–35) were separately treated with Adriamycin, and presence of CARP-1 and γH2AX was determined by immuno-cytochemical staining followed by photography by a confocal microscope as described in Section 2. […]
Figure 7 Disruption of H2AX interaction with CARP-1 results in enhanced viabilities of CFM-4-, CFM-4.16-, or Adriamycin-treated cells in part due to reduced apoptosis. […] The fluorescence released from the activated caspase-dependent cleavage of respective substrate was detected by a plate reader at the excitation and emission wavelengths of 380 nm and 460 nm, respectively, as detailed in Section 2. […]

Molecule | cell viability (MDA-MB-468 cells) | growth inhibition of EGFP-CARP-1 / EGFP-H2AX (1–35)-expressing cells (MDA-MB-468 cells; MTT, mean of three experiments) | caspase-3 activation in EGFP-peptide-expressing cells [1] | further results
COc1cccc2c1C(=O)c1c(O)c3c(c(O)c1C2=O)C[C@@](O)(C(=O)CO)C[C@@H]3O[C@H]1C[C@H](N)[C@H](O)[C@H](C)O1 [Adriamycin, doxorubicin, reference compound] | inhibited viabilities of both the cell lines in a time-dependent manner | resistant to inhibition by CFM-4.16 or ADR |  | cell-growth inhibition (MDA-MB-468 cells; 10 μM dose, MDA-MB-468, MTT dose-response, Figure S1A): robust cell-growth inhibition; growth inhibition of CARP-1 (Δ600–650)-expressing cells (MDA-MB-468 cells; MDA-MB-468 CARP-1 (Δ600–650) vs WT CARP-1-expressing counterparts, MTT, mean of three experiments): resistant to inhibition by CFM-4 or ADR; caspase activation in CARP-1 (Δ600–650) cells ([1]; 4–5 μM, CARP-1 (Δ600–650) vs wild-type CARP-1-expressing cells, mean of two experiments, 380/460 nm): overall reduction in activation of caspases-3, -8, -9, and -2
O=C1N(Cc2ccccc2Cl)c2ccccc2C12NN=C(c1cccc(Cl)c1)S2 (stereo not shown) [CFM-4.16] | inhibited viabilities of both the cell lines in a time-dependent manner | resistant to inhibition by CFM-4.16 or ADR |  | 
EGFP-CARP-1 (636–650): EGFP-tagged fusion protein stably expressed in MDA-MB-468 and HeLa sublines (PKTMKVNDLRKELES; also: EGFP fusion kept, end not given here) |  | resistant to inhibition by CFM-4.16 or ADR | overall reduction in activation of caspase-3 | 
EGFP-H2AX (1–35): EGFP-tagged fusion protein stably expressed in MDA-MB-468 and HeLa sublines (MSGRGKTGGKARAKAKSRSSRAGLQFPVGRVHRLL; also: EGFP fusion, end not given here; UniProt P16104 1-35, looked up, fragment) |  | resistant to inhibition by CFM-4.16 or ADR | overall reduction in activation of caspase-3 | 
His-TAT-HA-CARP-1 (636–650): His-TAT-HA-tagged CARP-1 (636–650) peptide, >95% purity, commercially synthesized ({His-TAT-HA}-PKTMKVNDLRKELES; reading uncertain; UniProt Q8IX12 636-650, looked up, fragment) |  |  |  | viability of Adriamycin-treated cells (MDA-MB-468 cells; MDA-MB-468 pre-incubated with 300 μg/mL peptide, 72 h, then Adriamycin, vs EGFP, MTT, mean of three experiments): moderate, statistically significant increase in viabilities; abrogation of Adriamycin-induced growth inhibition (MDA-MB-468 cells; cancer cells, abstract): moderate, statistically significant abrogation of Adriamycin-induced growth inhibition
